Reference: ChEMBL document CHEMBL5344406, “1,2,3-Triazole-containing hybrids with potential antibacterial activity against ESKAPE pathogens” (2022)
In brackets after ≈: the same amount, converted by molar mass. Blank lines part the entries; values can stand above or below the molecule they belong to.

Tests used:
Type in all cases: functional
Staphylococcus aureus [1] = test: Antibacterial activity against Staphylococcus aureus assessed as bacterial growth inhibition by CLSI based broth microdilution method
Pseudomonas aeruginosa [2] = test: Antibacterial activity against Pseudomonas aeruginosa assessed as bacterial growth inhibition by CLSI based broth microdilution method
Escherichia coli [3] = test: Antibacterial activity against Escherichia coli assessed as bacterial growth inhibition by CLSI based broth microdilution method
Staphylococcus aureus [4] = test: Antibacterial activity against Staphylococcus aureus clinical isolate assessed as bacterial growth inhibition incubated for 24 hrs by disk diffusion method
Escherichia coli [5] = test: Antibacterial activity against Escherichia coli clinical isolate assessed as bacterial growth inhibition incubated for 24 hrs by disk diffusion method
Staphylococcus aureus [6] = test: Antibacterial activity against Staphylococcus aureus assessed as bacterial growth inhibition
Staphylococcus aureus [7] = test: Antibacterial activity against Staphylococcus aureus assessed as bacterial growth inhibition by broth dilution method
Staphylococcus aureus [8] = test: Antibacterial activity against multidrug-resistant Staphylococcus aureus clinical isolate assessed as bacterial growth inhibition by broth dilution method
[9] = tested on: Staphylococcus epidermidis; test: Antibacterial activity against Staphylococcus epidermidis assessed as bacterial growth inhibition by serial dilution method
Bacillus subtilis [10] = test: Antibacterial activity against Bacillus subtilis assessed as bacterial growth inhibition by serial dilution method
Escherichia coli [11] = test: Antibacterial activity against Escherichia coli clinical isolate assessed as bacterial growth inhibition by disk diffusion method
Klebsiella pneumoniae = test: Antibacterial activity against Klebsiella pneumoniae clinical isolate assessed as bacterial growth inhibition by disk diffusion method
Staphylococcus aureus [12] = test: Antibacterial activity against Staphylococcus aureus clinical isolate assessed as bacterial growth inhibition by disk diffusion method
Serratia marcescens = test: Antibacterial activity against Serratia marcescens clinical isolate assessed as bacterial growth inhibition by disk diffusion method
Pseudomonas putida = test: Antibacterial activity against Pseudomonas putida clinical isolate assessed as bacterial growth inhibition by disk diffusion method
Staphylococcus aureus [13] = test: Antibacterial activity against Staphylococcus aureus assessed as bacterial growth inhibition by broth microdilution method
Bacillus subtilis [14] = test: Antibacterial activity against Bacillus subtilis assessed as bacterial growth inhibition by broth microdilution method
Escherichia coli [15] = test: Antibacterial activity against Escherichia coli assessed as bacterial growth inhibition by broth microdilution method
Pseudomonas aeruginosa [16] = test: Antibacterial activity against Pseudomonas aeruginosa assessed as bacterial growth inhibition by broth microdilution method
Escherichia coli [17] = test: Antibacterial activity against Escherichia coli ATCC 25922 assessed as bacterial growth inhibition by broth microdilution method
Staphylococcus aureus [18] = test: Antibacterial activity against Staphylococcus aureus ATCC 25923 assessed as bacterial growth inhibition by broth microdilution method
Staphylococcus aureus [19] = test: Antibacterial activity against methicillin-resistant Staphylococcus aureus ATCC 43300 infected in neutropenic mouse model of thigh infection assessed as reduction in bacterial load at 20 mg/kg, iv measured after 24 hrs by colony counting method
Staphylococcus aureus [20] = test: Antibacterial activity against Staphylococcus aureus 209p ATCC 6538P assessed as bacterial growth inhibition incubated for 1 to 2 days by serial dilution method; details: time 1-2 day
Staphylococcus aureus [21] = test: Antibacterial activity against Staphylococcus aureus clinical isolate AD3 assessed as bacterial growth inhibition incubated for 24 hrs by broth microdilution method
Staphylococcus aureus [22] = test: Antibacterial activity against Staphylococcus aureus ATCC 43300 assessed as bacterial growth inhibition incubated for 24 hrs by broth microdilution method
Staphylococcus aureus [23] = test: Antibacterial activity against Staphylococcus aureus ATCC 29213 assessed as bacterial growth inhibition incubated for 24 hrs by broth microdilution method
Staphylococcus aureus [24] = test: Antibacterial activity against Staphylococcus aureus clinical isolate 144 assessed as bacterial growth inhibition incubated for 24 hrs by broth microdilution method
Escherichia coli [25] = test: Antibacterial activity against Escherichia coli assessed as bacterial growth inhibition

- MIC (Staphylococcus aureus [1]): 4 µg/mL (≈ 7.21 µM)
- MIC (Pseudomonas aeruginosa [2]): 4 µg/mL (≈ 7.21 µM)
- MIC (Escherichia coli [3]): 4 µg/mL (≈ 7.21 µM)
SMILES: O=C(N/N=C/c1cn(-c2ccccc2)nc1-c1ccc([N+](=O)[O-])cc1)c1cccc(-n2cc(-c3ccccc3)nn2)c1

- MIC (Staphylococcus aureus [4]): 10.1 µg/mL (≈ 26.5 µM)
- MIC (Escherichia coli [5]): 10.1 µg/mL (≈ 26.5 µM)
SMILES: Cc1ccc2c(c1)c(=O)c1ccccc1n2Cc1cn(-c2ccccc2C)nn1

- MIC (Staphylococcus aureus [6]): 4 µg/mL
SMILES: COc1cc2c(cc1OC)C[N+](Cc1cn(-c3ccc(C(C)(C)C)cc3)nn1)(Cc1cn(-c3ccc(C(C)(C)C)cc3)nn1)CC2.[Br-]

SMILES: CCn1cc(C(=O)O)c(=O)c2cc(F)c(N3CCNCC3)cc21 [NORFLOXACIN]
- MIC (Staphylococcus aureus [7]): 7.5 µg/mL (≈ 23.5 µM)
- MIC (Staphylococcus aureus [8]): 7.5 µg/mL (≈ 23.5 µM)
- MIC [9]: 3.12 µg/mL (≈ 9.77 µM)
- MIC (Bacillus subtilis [10]): 3.12 µg/mL (≈ 9.77 µM)

- MIC (Escherichia coli [11]): 12.3 µg/mL (≈ 28.1 µM)
- MIC (Klebsiella pneumoniae): 12.3 µg/mL (≈ 28.1 µM)
- MIC (Staphylococcus aureus [12]): 12.3 µg/mL (≈ 28.1 µM)
- MIC (Serratia marcescens): 12.3 µg/mL (≈ 28.1 µM)
- MIC (Pseudomonas putida): 12.3 µg/mL (≈ 28.1 µM)
SMILES: Cc1ccc(NC(=O)Cn2cc(Cn3c4ccccc4c(=O)c4cc(C)ccc43)nn2)cc1

- MIC (Staphylococcus aureus [13]): 1.56 µg/mL (≈ 3.77 µM)
- MIC (Bacillus subtilis [14]): 1.56 µg/mL (≈ 3.77 µM)
- MIC (Escherichia coli [15]): 1.56 µg/mL (≈ 3.77 µM)
- MIC (Pseudomonas aeruginosa [16]): 1.56 µg/mL (≈ 3.77 µM)
SMILES: CC(=O)Nc1ccc(S(=O)(=O)n2cc(CN3CCS(=O)(=O)CC3)nn2)cc1

- MIC (Escherichia coli [17]): 6.5 µg/mL (≈ 13.7 µM)
- MIC (Staphylococcus aureus [18]): 6.5 µg/mL (≈ 13.7 µM)
SMILES: Clc1ccc(Cn2cc(Cn3nnc(C4=Cc5cc(Cl)ccc5OC4)n3)nn2)c(Cl)c1

SMILES: C=C[C@]1(C)C[C@@H](OC(=O)CSCCN(CC)CC)[C@]2(C)[C@H](C)CC[C@]3(CCC(=O)[C@H]32)[C@@H](C)[C@@H]1O [TIAMULIN]
- Activity (Staphylococcus aureus [19]): -0.57 log10CFU/ml

- MIC (Escherichia coli [11]): 12.3 µg/mL (≈ 28.1 µM)
- MIC (Klebsiella pneumoniae): 12.3 µg/mL (≈ 28.1 µM)
- MIC (Staphylococcus aureus [12]): 12.3 µg/mL (≈ 28.1 µM)
- MIC (Serratia marcescens): 12.3 µg/mL (≈ 28.1 µM)
- MIC (Pseudomonas putida): 12.3 µg/mL (≈ 28.1 µM)
SMILES: Cc1ccc2c(c1)c(=O)c1ccccc1n2Cc1cn(CC(=O)Nc2ccccc2C)nn1

- MIC (Staphylococcus aureus [20]): 0.31 µg/mL (≈ 0.792 µM)
SMILES: COC(=O)c1cc2ccc(=O)oc2cc1-c1cn(-c2ccc(C(=O)O)cc2)nn1

- MIC (Staphylococcus aureus [21]): 0.5 µg/mL (≈ 0.809 µM)
- MIC (Staphylococcus aureus [22]): 0.5 µg/mL (≈ 0.809 µM)
- MIC (Staphylococcus aureus [23]): 0.5 µg/mL (≈ 0.809 µM)
- MIC (Staphylococcus aureus [24]): 0.5 µg/mL (≈ 0.809 µM)
SMILES: C=C[C@]1(C)C[C@@H](OC(=O)Cn2cc(CN3CCN(c4ccccc4C)CC3)nn2)[C@@]2(C)[C@@H]3C(=O)CC[C@@]3(CC[C@@H]2C)[C@@H](C)[C@@H]1O

- MIC (Bacillus subtilis [14]): 1.25 µg/mL (≈ 3.52 µM)
- MIC (Pseudomonas aeruginosa [16]): 1.25 µg/mL (≈ 3.52 µM)
SMILES: C=CCCCCC1CC(=O)N1Cc1cn(-c2cccc([N+](=O)[O-])c2)nn1 (stereo not drawn)

- MIC (Escherichia coli [25]): 1 µg/mL (≈ 2.5 µM)
- MIC (Staphylococcus aureus [6]): 1 µg/mL (≈ 2.5 µM)
SMILES: Cn1c([N+](=O)[O-])cnc1COCc1cn(-c2ccnc3cc(Cl)ccc23)nn1

- MIC (Staphylococcus aureus [4]): 10.1 µg/mL (≈ 27.6 µM)
- MIC (Escherichia coli [5]): 10.1 µg/mL (≈ 27.6 µM)
SMILES: Cc1ccccc1-n1cc(Cn2c3ccccc3c(=O)c3ccccc32)nn1
